These results are taken from patent US4874765A, “1,4-Disubstituted piperazines having dopaminergic activity” (Richter Gedeon Vegyeszeti Gyar, priority 1986, dated 1989).

Read-outs that look alike come from different tables or passages of the source.

The subject of one data set is striatum dopamine level. Put plainly: Protection against MPTP-induced striatal dopamine decrease in mice. Format: in vivo, male CFY mice. As to conditions: for inhibition in vivo at 100 µmol/kg: Mus musculus, 0.1 mmole/kg, 1 hour before MPTP 70 mg/kg s.c., striatum DA 72-96 hours after MPTP. As to the method: The dopaminergic activity of the compounds of the invention was determined by in vitro and in vivo animals tests. On the examination of the in vivo activity, the protective capability of the compounds against the neurotoxic effect of 1-methyl-4-phenyl-1,2,3,6-tetrahydropyridine (MPTP) was also studied. […] Davis et al.: Psychiat.
(§1) For these investigations male CFY mice (LATI, Godollo, Hungary) weighing 20-25 g were used. The compounds to be tested were homogenized in 1% Tween 80 solution and administered to the animals in a dose of 0.1 mmole/kg (in the route given in the Table) 1 hour before administering MPTP. MPTP was freshly dissolved in physiological saline solution and subcutaneously given to the mice in a dose of 70 mg/kg. 72 to 96 hours after the administration of MPTP the animals were killed by decapitation, their brain was rapidly removed, cooled in an ice-cold physiological saline solution, the striatum was excised and refrigerated in dry ice.
The tissues (in a refrigerated condition) were weighed and homogenized in 1 ml of 0.4N perchloric acid solution containing 0.5% of Na2 S2 O5, 0.25 % of Na2 EDTA and 100 ng of M-methyldopamine (internal standard for the determination of catecholamines) in an Ultra-Turrax equipment. The homogenate was centrifuged at 4° C. at 20,000 g for 10 minutes, then 0.8 ml of the supernatent was taken out. After adding 20 mg of activated aluminum oxide, the pH value of the solution was adjusted to 8 by adding 0.5M Tris solution and the tubes were shaken for 20 minutes. The aluminium oxide was settled, the supernatent was removed by suction and washed 3 times with 5 ml of distilled water each. The catecholamines adsorbed on the aluminium oxide were eluted with 1 ml of 0.05N perchloric acid. From a part of the eluate, dopamine was determined by using high pressure liquid chromatography by means of electrochemical detection (Labor MIM Oe-320 pump, 4×150 mm Nucleosil 5 C-18 analytical column and 4×20 mm Nucleosil 5 C-18 supplementary column; electrochemical detector fitted with a glassy-carbon working electrode and an Ag/AgCl2 reference electrode; Eltron potentiostat, LKB 2110 2-channel recorder; with an oxidation potential of 600 mV and as mobile phase 0.1M NaH2 PO4, 1 mM Na2 EDTA, 1 mM octanesulfonic acid containing 8.5% of acetonitrile; flow rate 1 ml/minute).
The protection against the dopamine decrease induced by MPTP was calculated as follows: [formula]
(§2) As a referenced drug, trihexyphenidyl hydrochloride (α-cyclohexyl-α-phenyl-1-piperidinepropanol hydrochloride) was used in a dose of 10 mg/kg (<0.1 mmole/kg).

For data set [1], the system named is dopaminergic system. The note with it: cited from earlier work.
Data set [2] has as its system dopaminergic system. The note with it: cited from earlier work. The source holds these as a separate data set.
The conditions of data set [3]: dose higher than 10 mg/kg; mice. On the procedure: as §1, §2
Where [4] appears, read: ip, read-out: DA decrease induced by MPTP, % inhibition, i.p. route.
The mark [5] stands for this setting: po, read-out: DA decrease induced by MPTP, % inhibition, p.o. route.

For the compound `C=CCN1CCN(CCOC(c2ccc(F)cc2)c2ccc(F)cc2)CC1` [Compound 1, 1-[2[bis(4-fluorophenyl)methoxy]ethyl]-4-(2-propenyl)-piperazine], the inhibition in vivo at 100 µmol/kg amounted to 98% with striatum dopamine level (setting [4]) and 100% with striatum dopamine level (setting [5]). With `CCCN1CCN(CCOC(c2ccc(F)cc2)c2ccc(F)cc2)CC1` [Compound 2], in the data set on striatum dopamine level (setting [4]), the inhibition in vivo at 100 µmol/kg amounted to 100%.

For `C=CCN1CCN(CCOC(c2ccccc2)c2ccc(F)cc2)CC1` (centres unmarked) [Compound 3, 1-[2-[(4-fluorophenyl)-phenylmethoxy]ethyl]-4-(2-propenyl)piperazine], in the data set on striatum dopamine level (setting [5]), the inhibition in vivo at 100 µmol/kg is 100%. As to `C=CCN1CCN(CCOC(c2ccc(F)cc2)c2ccc(Cl)cc2)CC1` (centres unmarked) [Compound 4, 1-[2-[(4-chlorophenyl)-(4-fluorophenyl)methoxy]-ethyl]-4-(2-propenyl)piperazine], the inhibition in vivo at 100 µmol/kg in the data set with striatum dopamine level (setting [4]) came to 100%. Turning to `C=CCN1CCN(CCOC(c2ccc(F)cc2)c2ccc(Br)cc2)CC1` (centres unmarked) [Compound 5, 1-[2-[(4-bromophenyl)-(4-fluorophenyl)methoxy]-ethyl]-4-(2-propenyl)piperazine], the inhibition in vivo at 100 µmol/kg with striatum dopamine level (setting [4]) turned out to be 100%. In the case of `C=CCN1CCN(CCOC(c2ccc(Cl)cc2)c2ccc(Cl)cc2)CC1` [Compound 6, 1-[2-[bis(4-chlorophenyl)methoxy]ethyl]-4-(2-propenyl)piperazine], the inhibition in vivo at 100 µmol/kg in the data set with striatum dopamine level (setting [4]) stood at 100%. For `C=CCN1CCN(CCOC(c2ccccc2)c2ccc(Cl)c(Cl)c2)CC1` (centres unmarked) [Compound 7, 1-[2-[(3,4-dichlorophenyl)-phenylmethoxy]ethyl]--4-(2-propenyl)-piperazine], the inhibition in vivo at 100 µmol/kg in the data set with striatum dopamine level (setting [4]) was 100%; in the data set on striatum dopamine level (setting [5]) it was 98%.

As to `CCCN1CCN(CCOC(c2ccc(F)cc2)c2ccc(Cl)cc2)CC1` (centres unmarked) [Compound 8, 1-[2-[(4-chlorophenyl)-(4-flurophenyl)methoxy]-ethyl]-4-propyl-piperazine], the inhibition in vivo at 100 µmol/kg in the data set with striatum dopamine level (setting [4]) was determined as 95%. On the same count and under the same terms, then `CCCCN1CCN(CCOC(c2ccc(F)cc2)c2ccc(F)cc2)CC1` [Compound 9, 1-[2-[bis(4-flurophenyl)methoxy]ethyl]-4-butyl-piperazine], with 100%. Regarding `C=CCN1CCN(CCOC(C)(c2ccc(F)cc2)c2ccc(F)cc2)CC1` [Compound 10, 1-[2-[1-bis(4-fluorophenyl)ethoxy]ethyl]-4-(2-propenyl)piperazine], the inhibition in vivo at 100 µmol/kg in the data set on striatum dopamine level (setting [4]) worked out at 89%. Same read-out and setting: the value for `CCCCCC(=O)N1CCN(CCOC(c2ccc(F)cc2)c2ccc(F)cc2)CC1` [Compound 11, 1-[2-[bis(4-fluorophenyl)methoxy]ethyl]-4-(1-oxo-hexyl)piperazine] was 82%. As for `C#CCN1CCN(CCOC(c2ccc(F)cc2)c2ccc(F)cc2)CC1` [Compound 12, 1-[2-[bis(4-fluorophenyl)methoxy]ethyl]-4-(2--propynyl)piperazine], in the data set on striatum dopamine level (setting [5]), the inhibition in vivo at 100 µmol/kg stood at 94%. Same read-out and setting: then `C=C(C)CN1CCN(CCOC(c2ccc(F)cc2)c2ccc(F)cc2)CC1` [Compound 13, 1-[2-[bis(4-fluorophenyl)methoxy]ethyl]-4-(2-methyl--2-propenyl)-piperazine], with 95%. The same measure, in the same setting: then `CCC(=O)N1CCN(CCOC(c2ccc(F)cc2)c2ccc(F)cc2)CC1` [Compound 14, 1-[2-[bis(4-fluorophenyl)methoxy]ethyl]-4-(1-oxo-propyl)piperazine], with 71%. For `CCCCN1CCN(CCOC(c2ccccc2)c2ccc(Cl)c(Cl)c2)CC1` (centres unmarked) [Compound 15], the inhibition in vivo at 100 µmol/kg with striatum dopamine level (setting [4]) came to 98%. With `CCCCN1CCN(CCOC(c2ccc(F)cc2)c2ccc(Cl)cc2)CC1` (centres unmarked) [Compound 16, 1-[2-[(4-chlorophenyl)-(4-fluorophenyl)methoxy]-ethyl]-4-butylpiperazine], in the data set on striatum dopamine level (setting [5]), the inhibition in vivo at 100 µmol/kg came out at 86%. `CCCCCCN1CCN(CCOC(c2ccc(F)cc2)c2ccc(F)cc2)CC1` [Compound 17, 1-[2-[bis(4-fluorophenyl)methoxy]ethyl]-4-hexyl-piperazine]: in the data set on striatum dopamine level (setting [5]), the inhibition in vivo at 100 µmol/kg was found to be 89%. For the compound `CN1CC=C(c2ccccc2)CC1.Cl` [MPTP, 1-methyl-4-phenyl-1,2,3,6-tetrahydropyridine hydrochloride], in the data set on dopaminergic system [1], the “selective dopaminergic system-damaging effect on mice” value is on record as “selective dopaminergic system-damaging effect”. Moreover, the “degeneration of the dopaminergic system in men and monkeys” value with dopaminergic system [2] is “causes the degeneration of the dopaminergic system”. With `Cl.OC(CCN1CCCCC1)(c1ccccc1)C1CCCCC1` (stereo not drawn) [Trihexyphenidyl.HCl, α-cyclohexyl-α-phenyl-1-piperidinepropanol hydrochloride, reference compound], the “DA decrease induced by MPTP, % inhibition, i.p. route (reference drug)” value with striatum dopamine level (i.p., 10 mg/kg (<0.1 mmole/kg), before MPTP 70 mg/kg s.c.) was determined as 7%. In addition, the “lethality at doses above 10 mg/kg” value in data set [3] was “The animals perished on administration of a higher dose”.
